Reference: paper PMC5028030, “Costimulatory Effects of an Immunodominant Parasite Antigen Paradoxically Prevent Induction of Optimal CD8 T Cell Protective Immunity” (PLoS Pathogens, 2016)
“Also recorded” adds a separate entry of the source. Peptide text beside a SMILES is read from it.

Experiments:
[1] = target: WT TS (Trypanosoma cruzi, UniProt P23253); assay: Inhibition of TS enzymatic activity (MuNANA hydrolysis); assay type: biochemical
Procedure: (§1) Fig 6 TS enzymatic activity is associated with costimulatory effects. In panel A, enzymatic activities of WT and TSKd1 mutant proteins were determined in lysates and supernatants of 293T cells transfected with WT TS and TSKd1 null DNA using fluorometric TS enzymatic activity assays. […] CD8^+ T cells from naïve 4–5 week old BALB/c mice were purified by positive magnetic bead selection and incubated with suboptimal doses of PMA (12.5ng/ml) ± WT or TSKd1 null rTS. After 3 days, proliferation was measured by ^3H-Thymidine incorporation. Shown are incorporated ^3H-Thymidine counts per minute (CPM) above suboptimal PMA treatment alone. […]
Trans-sialidase enzymatic activity was assayed as described previously. […] The acid elutions were incubated at 95°C for 45 minutes, the reactions neutralized with glycine/NaOH (pH 10) and released 4-MU measured by fluorescence emission at 450nm and compared to a standard curve. […] The reaction was continuously monitored in a SpectraMax i3 Multi-Mode Detection Platform (Molecular Devices) after pre-incubation of the enzyme with the peptide for 10 min at room temperature. The residual activity at each concentration of TSKd1 was obtained by dividing the slope calculated at each concentration of TSKd1 (Vi) by the initial velocity determined in the absence of peptide (V0). […]

[2] = test system: CD4^+ T cells; set-up: method as in manuscript in preparation; settings: after TS vaccination; I-A^d-restricted; ref manuscript in preparation; cited from earlier work
[3] = test system: naïve CD8^+ T cells; assay: CD8^+ T cell costimulation assay; assay type: cell-based, BALB/c mouse; settings: inhibitor added to TS/PMA activated CD8^+ T cell cultures
Procedure: as §1, with “alone. Similar TS costimulation assays using naïve CD8^+ T cells were conducted with CD45 inhibitor PTP or Src-family kinase inhibitor PP2 added (C). In panel D, increasing concentrations of TSKd1 peptide were added to constant amounts of WT TS in TS enzyme assays.” for “alone.”
CD8^+ T cells purified by positive Miltenyi magnetic bead selection from naïve 4–5 week old BALB/c mice were added to 96-well flat bottom plates (2x10^5 cells/well) and stimulated with suboptimal doses of PMA (12.5 ng/ml) with or without recombinant WT vs TSKd1 null TS protein (25–100 μg/ml) similar to TS costimulatory assays conducted previously. […] Ultima Gold F scintillation fluid was added and filtermats counted using a Perkin Elmer TriLux MicroBeta 1450 instrument. […]

Chain of WT TS (P23253 whole entry): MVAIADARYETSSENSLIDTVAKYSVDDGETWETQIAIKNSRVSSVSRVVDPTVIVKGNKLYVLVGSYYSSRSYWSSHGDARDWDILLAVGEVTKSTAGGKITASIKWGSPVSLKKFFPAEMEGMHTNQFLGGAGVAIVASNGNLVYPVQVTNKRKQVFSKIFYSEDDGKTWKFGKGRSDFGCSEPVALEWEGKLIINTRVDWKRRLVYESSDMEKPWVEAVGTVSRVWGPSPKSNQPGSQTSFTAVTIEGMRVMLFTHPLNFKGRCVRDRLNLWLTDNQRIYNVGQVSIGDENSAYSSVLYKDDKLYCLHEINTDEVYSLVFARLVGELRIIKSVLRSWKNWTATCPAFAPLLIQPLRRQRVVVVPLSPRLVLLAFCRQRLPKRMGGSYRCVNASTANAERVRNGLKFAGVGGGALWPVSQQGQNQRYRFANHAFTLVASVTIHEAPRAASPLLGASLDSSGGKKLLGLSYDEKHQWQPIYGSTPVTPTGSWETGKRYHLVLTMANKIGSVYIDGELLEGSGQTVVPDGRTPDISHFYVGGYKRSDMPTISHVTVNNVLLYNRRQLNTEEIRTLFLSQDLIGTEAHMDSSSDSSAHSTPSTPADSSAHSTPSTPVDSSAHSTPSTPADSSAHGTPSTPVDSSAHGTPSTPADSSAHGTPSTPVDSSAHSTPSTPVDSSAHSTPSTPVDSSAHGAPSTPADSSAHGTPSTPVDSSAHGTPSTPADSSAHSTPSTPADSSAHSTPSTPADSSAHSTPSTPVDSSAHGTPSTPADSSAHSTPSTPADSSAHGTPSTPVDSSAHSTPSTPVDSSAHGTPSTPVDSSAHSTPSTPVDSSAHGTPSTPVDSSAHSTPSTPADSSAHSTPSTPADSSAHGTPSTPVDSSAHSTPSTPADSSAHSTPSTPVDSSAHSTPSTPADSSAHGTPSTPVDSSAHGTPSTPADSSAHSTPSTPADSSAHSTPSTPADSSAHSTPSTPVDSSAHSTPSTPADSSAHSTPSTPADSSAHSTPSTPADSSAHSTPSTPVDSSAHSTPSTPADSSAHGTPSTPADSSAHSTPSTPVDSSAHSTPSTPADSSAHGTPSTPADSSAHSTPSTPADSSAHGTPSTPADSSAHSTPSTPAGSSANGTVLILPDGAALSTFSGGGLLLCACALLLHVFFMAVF

## CC[C@H](C)[C@H](N)C(=O)N[C@@H](Cc1ccc(O)cc1)C(=O)N[C@@H](CC(N)=O)C(=O)N[C@H](C(=O)NCC(=O)N[C@@H](CCC(N)=O)C(=O)N[C@H](C(=O)N[C@@H](CO)C(=O)N[C@H](C(=O)O)[C@@H](C)CC)C(C)C)C(C)C [TSKd1, IYNVGQVSI] (H-IYNVGQVSI-OH)
[1]
  IC50: 20 ± 3 µM

## KVTERVVHSFRLPALVNV [p7]
[2]
  CD4^+ T cell response to peptide: most potent CD4^+ T cell responses of any peptide tested

## CC(C)(C)C(=O)Nc1ccc2c(c1)C(=O)C(=O)c1ccccc1-2 [PTP, N-[(9-10-dioxo-9,10-dihydro-phenanthren-2-yl)-2,2-dimethyl-propionamide]]
[3]
  inhibition of TS costimulatory activity: blocked; also recorded: prevent co-stimulation of naïve CD8^+ T cells
